From US10441648B2, “Mycobacterium antigenic composition” (priority 2010, dated 2019)
Where two headings read alike, the source gives them in different places.

Experiments:
[1] = Conductivity determination (Malvern Zetasizer Nano); assay type: physicochemical
Description: A range of standards having sodium chloride concentrations of 0, 75, 100, 150, 250 and 300 mM were prepared from a stock solution of 1500 mM sodium chloride by dilution in water for injection.
Immunogenic compositions were prepared using M72 with two N-terminal His residues according to the procedures provided in Example 8. To investigate the contribution from the antigen itself and any residual materials in the purified bulk, placebo lyophilisation cakes were also prepared by excluding the antigen component.
Using a Malvern Zetasizer Nano and 1.5 ml of each sample in folded capillary cells, a voltage of 30 to 150 V (determined automatically by the instrument) was applied and the conductivity determined.

[2] = system: chicken Red Blood cells (RBC); assay: QS21 lytic activity, haemolysis assay (limit test); assay type: cell-based
Description: QS21 is known to lyse red blood cells (RBC).
QS21 lytic activity was measured by a haemolysis assay using chicken Red Blood cells (RBC). RBC were centrifuged at 550 g at 4° C. Supernatant was discarded. The pellet was carefully resuspended in PBS buffer to reach the initial volume and the same operation was repeated until supernatant was no longer red (generally 3 times). The pellet was stored at 4° C. for 3 to 4 days maximum if not used directly (and washed again the day it is used) or was diluted around 10 times in buffer if used the same day.
A QS21 dose range curve was prepared in ASA buffer (in salt or in sorbitol buffer following the ASA sample tested) extemporaneously and the adjuvant samples (containing a 50 ug or 90 ug equivalent of QS21 meaning the equivalent of 500 ul or 900 ul ASA) were prepared. Final volume was adjusted to 900 ul in standards and samples with adequate buffer (containing or not sorbitol as a function of the buffer of the sample tested). Due to its opalescence, ASA interferes with optical density (OD). ASA “blanks” were thus prepared and their OD was subtracted from the OD of ASA tested samples. Those blanks corresponded to the same ASA volume as the volume tested in samples, but adjusted to 1 ml with buffer. No RBC were added to these blanks. Standards and samples were then incubated with RBC (100 ul of diluted RBC added to 900 ul of standards and samples) for 30 minutes at room temperature (RT). Samples were then centrifuged 5 minutes at 900 g. Optical density at 540 nm was measured after centrifugation.
Determination of lytic activity was carried out by a limit test.
1. Limit of detection (LOD) was defined as the lowest concentration of QS21 leading to an OD: • Higher than the base level (OD>0.1) • Around three times higher than OD's buffer (the “0 ug” QS21) • In the ascendant part of the curve • Determined for each test.
2. QS21 lytic activity was held to be positive in the adjuvant samples if the OD for the adjuvant sample was greater than the ODLOD. […]

[3] = DLS and nephelometry of Mtb72f at varied pH and NaCl; assay type: physicochemical; settings: pH 6.1, 7.5, 8.5; 0, 150, 450 mM sodium chloride; 24 hours at 4° C. or 25° C.
[4] = DLS antigen size of M72 at varied pH and NaCl (salting out); assay type: physicochemical
Description: Purified bulk antigen (M72 with two N-terminal His residues, SEQ ID No: 3, as prepared in Example 8) was diluted to a concentration of 100 ug/ml in three different buffers (10 mM phosphate buffer at pH 6.1, 20 mM Tris buffer at pH 7.5 and 20 mM Tris buffer at pH 8.5) containing final sodium chloride concentrations of 0, 50, 150, 300 and 450 mM.
Samples were analysed immediately (TO), stored overnight at 4° C. before analysis (T0 O/N) or stored at 25° C. for 24 hours before analysis (T24 h 25° C.).
DLS was performed using a Malvern Zetasizer Nano ZS from Malvern Instruments (UK). The instrument was operated using a laser wavelength of 633 nm and power of 4 mW. Scattered light was detected at 173° at a temperature of 22° C. The Z-average diameter (Zav) and polydispersity index (pi) are calculated by the instrument software.

[5] = pH 6.1, even in the absence of sodium chloride
[6] = pH 7.5 or 8.5, over 24 hours at 25° C., particularly 0 or 50 mM sodium chloride
[7] = pH 7.5 or 8.5, sodium chloride increased to 150 mM or greater

## [Cl-].[Na+] [sodium chloride]
[1]; sodium chloride standard solution 75 mM in water for injection
  Conductivity: 8.2 mS/cm
[1]; sodium chloride standard solution 100 mM
  Conductivity: 10.7 mS/cm
[1]; sodium chloride standard solution 150 mM
  Conductivity: 15.6 mS/cm
[1]; sodium chloride standard solution 250 mM
  Conductivity: 23.9 mS/cm
[1]; sodium chloride standard solution 300 mM
  Conductivity: 30.0 mS/cm

## QS21
[2]; 0.5 ug QS21, 150 mM sodium chloride buffer, optical density at 540 nm, 30 minutes RT with RBC
  OD: 0.052
[2]; 0.6 ug QS21, 150 mM sodium chloride buffer, 540 nm
  OD: 0.073
[2]; 0.7 ug QS21, 150 mM sodium chloride buffer, 540 nm
  OD: 0.091
[2]; 0.8 ug QS21, 150 mM sodium chloride buffer, 540 nm
  OD: 0.096
[2]; 0.9 ug QS21 (limit of detection), 150 mM sodium chloride buffer, 540 nm
  OD: 0.12
[2]; 1 ug QS21, 150 mM sodium chloride buffer, 540 nm
  OD: 0.195
[2]; 1.1 ug QS21, 150 mM sodium chloride buffer, 540 nm
  OD: 0.212
[2]; 1.2 ug QS21, 150 mM sodium chloride buffer, 540 nm
  OD: 0.348
[2]; 1.3 ug QS21, 150 mM sodium chloride buffer, 540 nm
  OD: 0.479
[2]; 1.4 ug QS21, 150 mM sodium chloride buffer, 540 nm
  OD: 0.612
[2]; 1.5 ug QS21, 150 mM sodium chloride buffer, 540 nm
  OD: 0.669
[2]; 2 ug QS21, 150 mM sodium chloride buffer, 540 nm
  OD: 1.139
[2]; 2.5 ug QS21, 150 mM sodium chloride buffer, 540 nm
  OD: 1.294
[2]; 3 ug QS21, 150 mM sodium chloride buffer, 540 nm
  OD: 1.391
[2]; 5 ug QS21, 150 mM sodium chloride buffer, 540 nm
  OD: 1.416

B1: Mtb72f: purified bulk antigen, Mtb72f with 6 his residues, SEQ ID No: 7 (protein)
chain: MHHHHHHTAASDNFQLSQGGQGFAIPIGQAMAIAGQIRSGGGSPTVHIGPTAFLGLGVVDNNGNGARVQRVVGSAPAASLGISTGDVITAVDGAPINSATAMADALNGHHPGDVISVTWQTKSGGTRTGNVTLAEGPPAEFMVDFGALPPEINSARMYAGPGSASLVAAAQMWDSVASDLFSAASAFQSVVWGLTVGSWIGSSAGLMVAAASPYVAWMSVTAGQAELTAAQVRVAAAAYETAYGLTVPPPVIAENRAELMILIATNLLGQNTPAIAVNEAEYGEMWAQDAAAMFGYAAATATATATLLPFEEAPEMTSAGGLLEQAAAVEEASDTAAANQLMNNVPQALQQLAQPTQGTTPSSKLGGLWKTVSPHRSPISNMVSMANNHMSMTNSGVSMTNTLSSMLKGFAPAAAAQAVQTAAQNGVRAMSSLGSSLGSSGLGGGVAANLGRAASVGSLSVPQAWAAANQAVTPAARALPLTSLTSAAERGPGQMLGGLPVGQMGARAGGGLSGVLRVPPRPYVMPHSPAAGDIAPPALSQDRFADFPALPLDPSAMVAQVGPQVVNINTKLGYNNAVGAGTGIVIDPNGVVLTNNHVIAGATDINAFSVGSGQTYGVDVVGYDRTQDVAVLQLRGAGGLPSAAIGGGVAVGEPVVAMGNSGGQGGTPRAVPGRVVALGQTVQASDSLTGAEETLNGLIQFDAAIQPGDSGGPVVNGLGQVVGMNTAAS
modifications: 6 His tag; Mtb72f fusion with 6 additional his residues
[3]
  sensitivity of size (DLS and nephelometry) to salt and pH: sensitive to salt concentration and pH

B2: M72: purified bulk antigen, M72 with two N-terminal His residues, SEQ ID No: 3 (protein)
chain: MHHTAASDNFQLSQGGQGFAIPIGQAMAIAGQIRSGGGSPTVHIGPTAFLGLGVVDNNGNGARVQRVVGSAPAASLGISTGDVITAVDGAPINSATAMADALNGHHPGDVISVTWQTKSGGTRTGNVTLAEGPPAEFMVDFGALPPEINSARMYAGPGSASLVAAAQMWDSVASDLFSAASAFQSVVWGLTVGSWIGSSAGLMVAAASPYVAWMSVTAGQAELTAAQVRVAAAAYETAYGLTVPPPVIAENRAELMILIATNLLGQNTPAIAVNEAEYGEMWAQDAAAMFGYAAATATATATLLPFEEAPEMTSAGGLLEQAAAVEEASDTAAANQLMNNVPQALQQLAQPTQGTTPSSKLGGLWKTVSPHRSPISNMVSMANNHMSMTNSGVSMTNTLSSMLKGFAPAAAAQAVQTAAQNGVRAMSSLGSSLGSSGLGGGVAANLGRAASVGSLSVPQAWAAANQAVTPAARALPLTSLTSAAERGPGQMLGGLPVGQMGARAGGGLSGVLRVPPRPYVMPHSPAAGDIAPPALSQDRFADFPALPLDPSAMVAQVGPQVVNINTKLGYNNAVGAGTGIVIDPNGVVLTNNHVIAGATDINAFSVGSGQTYGVDVVGYDRTQDVAVLQLRGAGGLPSAAIGGGVAVGEPVVAMGNSGGQGGTPRAVPGRVVALGQTVQASDSLTGAEETLNGLIQFDAAIQPGDAGGPVVNGLGQVVGMNTAAS
modifications: M72 fusion with 2 additional his residues
[5]
  stability of antigenicity: not stable
[6]
  stability of antigenicity: relatively stable
[7]
  change in antigenicity: reduction
[4]; pH 6.1, 0 mM sodium chloride, T0
  antigen size (DLS): 35 nm
[4]; pH 6.1, 50 mM sodium chloride, T0
  antigen size (DLS): 58 nm
[4]; pH 6.1, 50 mM sodium chloride, after 24 hours at 25° C.
  antigen size (DLS): 79 nm
[4]; [5]
  stability of antigen size: not stable
[4]; [6]
  stability of antigen size: relatively stable
[4]; [7]
  change in antigen size: clear increase
